From ChEMBL document CHEMBL3600349 (Bioorg Med Chem Lett, 2015)

Key:
Rattus norvegicus [1] = experiment: Antiobesity activity in diet-induced obese Wistar rat model assessed as reduction of body weight at 5 mg/kg, po qd after 4 weeks; type: functional; design: scale not given: the % may be the effect or the level left
[2] = biological target: T1, Melanin-concentrating hormone receptor 1 (Homo sapiens, UniProt Q99705); experiment: Displacement of [125I]-MCH from human MCH-R1 expressed in CHO/Galpha16 cells after 60 mins by scintillation counting; type: cell-based
T1 sequence (Q99705 whole entry): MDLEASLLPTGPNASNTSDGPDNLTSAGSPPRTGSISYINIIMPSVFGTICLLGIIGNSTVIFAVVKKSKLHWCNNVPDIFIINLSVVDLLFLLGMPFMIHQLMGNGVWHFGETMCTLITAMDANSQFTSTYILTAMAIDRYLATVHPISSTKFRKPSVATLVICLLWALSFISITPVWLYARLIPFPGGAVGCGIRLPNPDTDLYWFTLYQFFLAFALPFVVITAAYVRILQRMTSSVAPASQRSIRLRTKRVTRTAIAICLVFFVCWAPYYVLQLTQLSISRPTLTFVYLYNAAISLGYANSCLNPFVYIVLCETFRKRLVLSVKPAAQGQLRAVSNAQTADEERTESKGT

[3] = Lipophilicity, log P of the compound by HPLC analysis; type: physicochemical
[4] = Half life in rat liver microsomes; type: ADME
U-937 [5] = experiment: Toxicity in human U937 cells assessed as first effect concentration for phospholipidosis by nile red uptake assay; type: cell-based
[6] = Intrinsic clearance in human hepatocytes assessed per 10^6 cells; type: ADME, cell-based, Hepatocyte; conditions: read-out: CLH
hERG (KCNH2) = hERG (KCNH2) (Homo sapiens, UniProt Q12809); experiment: Inhibition of human ERG at 10 uM by patch clamp assay
Chain of hERG (KCNH2) (Q12809 whole entry): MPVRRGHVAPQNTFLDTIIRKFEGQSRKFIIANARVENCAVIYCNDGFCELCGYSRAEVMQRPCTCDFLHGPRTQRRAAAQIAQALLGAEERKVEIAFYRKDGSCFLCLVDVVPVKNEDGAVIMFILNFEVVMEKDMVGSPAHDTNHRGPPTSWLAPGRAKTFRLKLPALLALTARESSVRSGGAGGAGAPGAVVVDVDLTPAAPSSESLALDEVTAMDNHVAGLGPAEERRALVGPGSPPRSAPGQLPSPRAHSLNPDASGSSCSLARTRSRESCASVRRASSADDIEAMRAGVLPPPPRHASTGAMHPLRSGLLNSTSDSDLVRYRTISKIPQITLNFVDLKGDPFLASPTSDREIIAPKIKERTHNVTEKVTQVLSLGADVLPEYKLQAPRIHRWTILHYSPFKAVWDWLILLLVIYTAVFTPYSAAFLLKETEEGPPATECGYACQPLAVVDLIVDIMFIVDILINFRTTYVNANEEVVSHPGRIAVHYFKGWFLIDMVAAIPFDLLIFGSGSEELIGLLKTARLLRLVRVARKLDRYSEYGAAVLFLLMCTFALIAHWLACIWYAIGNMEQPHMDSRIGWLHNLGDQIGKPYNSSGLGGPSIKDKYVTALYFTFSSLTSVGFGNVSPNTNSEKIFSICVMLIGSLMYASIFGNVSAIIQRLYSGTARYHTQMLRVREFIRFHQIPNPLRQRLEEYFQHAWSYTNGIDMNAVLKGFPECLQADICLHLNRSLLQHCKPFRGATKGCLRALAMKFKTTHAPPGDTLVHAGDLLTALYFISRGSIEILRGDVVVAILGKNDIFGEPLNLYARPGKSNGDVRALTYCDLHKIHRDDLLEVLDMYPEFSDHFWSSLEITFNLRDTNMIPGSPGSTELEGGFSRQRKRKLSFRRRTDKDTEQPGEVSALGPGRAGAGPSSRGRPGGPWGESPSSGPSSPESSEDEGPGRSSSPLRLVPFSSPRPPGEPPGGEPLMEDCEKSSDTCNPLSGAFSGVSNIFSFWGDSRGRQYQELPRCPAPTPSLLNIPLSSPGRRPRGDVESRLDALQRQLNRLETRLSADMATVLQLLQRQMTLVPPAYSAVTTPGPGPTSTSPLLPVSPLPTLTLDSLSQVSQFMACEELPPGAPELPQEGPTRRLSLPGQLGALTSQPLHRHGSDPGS

[7] = biological target: T1, Melanin-concentrating hormone receptor 1; experiment: Binding affinity to human MCH-R1 expressed in CHO/Galpha16 cells; type: cell-based
[8] = biological target: Histamine H3 receptor (Homo sapiens) (UniProt Q9Y5N1); experiment: Binding affinity to histamine H3 receptor (unknown origin) at 10 uM by radioligand binding assay
Chain of Histamine H3 receptor (Homo sapiens) (Q9Y5N1 whole entry): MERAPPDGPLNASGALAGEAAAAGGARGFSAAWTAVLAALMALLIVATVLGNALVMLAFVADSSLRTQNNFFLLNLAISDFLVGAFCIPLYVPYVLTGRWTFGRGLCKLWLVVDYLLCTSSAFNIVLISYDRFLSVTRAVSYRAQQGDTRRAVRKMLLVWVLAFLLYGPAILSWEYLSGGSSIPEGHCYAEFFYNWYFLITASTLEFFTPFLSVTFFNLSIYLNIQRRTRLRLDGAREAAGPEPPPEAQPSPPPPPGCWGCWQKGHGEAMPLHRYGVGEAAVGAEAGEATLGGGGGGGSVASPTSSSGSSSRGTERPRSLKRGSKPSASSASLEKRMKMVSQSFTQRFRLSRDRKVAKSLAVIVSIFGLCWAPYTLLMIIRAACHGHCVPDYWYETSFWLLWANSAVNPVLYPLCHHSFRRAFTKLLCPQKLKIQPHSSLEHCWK

[9] = biological target: Melanin-concentrating hormone receptor 1 (Rattus norvegicus, UniProt P97639); experiment: Binding affinity to rat MCH-R1
Chain of Melanin-concentrating hormone receptor 1 (Rattus norvegicus, UniProt P97639) (P97639 whole entry): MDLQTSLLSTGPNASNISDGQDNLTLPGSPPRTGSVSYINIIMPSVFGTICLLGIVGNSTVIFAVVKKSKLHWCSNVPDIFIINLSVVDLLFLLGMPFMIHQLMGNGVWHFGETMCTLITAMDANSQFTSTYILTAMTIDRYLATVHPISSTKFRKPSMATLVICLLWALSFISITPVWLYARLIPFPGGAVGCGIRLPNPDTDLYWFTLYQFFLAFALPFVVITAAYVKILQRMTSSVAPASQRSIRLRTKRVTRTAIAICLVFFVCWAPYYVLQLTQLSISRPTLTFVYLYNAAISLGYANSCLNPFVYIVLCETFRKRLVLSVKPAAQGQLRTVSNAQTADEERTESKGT

[10] = Binding affinity to dog MCH-R1; design: species or system Canis lupus familiaris
[11] = Metabolic stability in human hepatocytes relative to hepatic blood flow; type: ADME, cell-based, Hepatocyte; conditions: read-out: Stability
[12] = Metabolic stability in rat hepatocytes relative to hepatic blood flow; type: ADME, cell-based, Hepatocyte; conditions: read-out: Stability
[13] = Metabolic stability in cynomolgus monkey hepatocytes relative to hepatic blood flow; type: ADME, cell-based, Macaca fascicularis, Hepatocyte; conditions: read-out: Stability
[14] = Plasma protein binding in human; type: ADME, cell-free; conditions: read-out: PPB (converted)
[15] = Plasma protein binding in rat; type: ADME, cell-free; conditions: read-out: PPB (converted)
[16] = Plasma protein binding in dog; type: ADME, cell-free, Canis lupus familiaris; conditions: read-out: PPB (converted)
[17] = Plasma protein binding in cynomolgus monkey; type: ADME, cell-free, Macaca fascicularis; conditions: read-out: PPB (converted)
[18] = Apparent permeability from apical to basolateral side in human Caco2 cells at 10 uM; type: ADME, cell-based; conditions: Caco-2
[19] = Efflux ratio in human Caco2 cells at 10 uM; type: ADME, cell-based; conditions: Caco-2
Rattus norvegicus [20] = species: Rattus norvegicus; experiment: Clearance in rat relative to hepatic blood flow; type: ADME, organism-based, Liver; conditions: in vivo
Canis familiaris = species: Canis familiaris; experiment: Clearance in dog relative to hepatic blood flow; type: ADME, organism-based, Canis lupus familiaris, Liver; conditions: in vivo
Cynomolgus monkey [21] = experiment: Clearance in cynomolgus monkey relative to hepatic blood flow; type: ADME, organism-based, Macaca fascicularis, Liver; conditions: in vivo
[22] = Volume of distribution at steady state in rat; type: ADME, organism-based; conditions: in vivo, read-out: Vdss
[23] = Volume of distribution at steady state in dog; type: ADME, organism-based, Canis lupus familiaris; conditions: in vivo, read-out: Vdss
[24] = Volume of distribution at steady state in cynomolgus monkey; type: ADME, organism-based, Macaca fascicularis; conditions: in vivo, read-out: Vdss
[25] = Mean residence time in iv dosed rat; type: ADME, organism-based; conditions: in vivo
[26] = Mean residence time in iv dosed dog; type: ADME, organism-based, Canis lupus familiaris; conditions: in vivo
[27] = Mean residence time in iv dosed cynomolgus monkey; type: ADME, organism-based, Macaca fascicularis; conditions: in vivo
[28] = Total mean residence time in iv dosed rat; type: ADME, organism-based; conditions: in vivo
[29] = Total mean residence time in iv dosed dog; type: ADME, organism-based, Canis lupus familiaris; conditions: in vivo
[30] = Total mean residence time in iv dosed cynomolgus monkey; type: ADME, organism-based, Macaca fascicularis; conditions: in vivo
[31] = Oral bioavailability in rat; type: ADME, organism-based; conditions: in vivo
[32] = Oral bioavailability in dog; type: ADME, organism-based, Canis lupus familiaris; conditions: in vivo
[33] = Oral bioavailability in cynomolgus monkey; type: ADME, organism-based, Macaca fascicularis; conditions: in vivo
Cytochrome P450 3A4 = Cytochrome P450 3A4 (Homo sapiens, UniProt P08684); experiment: Inhibition of CYP3A4 (unknown origin); type: ADME
Chain of Cytochrome P450 3A4 (P08684 whole entry): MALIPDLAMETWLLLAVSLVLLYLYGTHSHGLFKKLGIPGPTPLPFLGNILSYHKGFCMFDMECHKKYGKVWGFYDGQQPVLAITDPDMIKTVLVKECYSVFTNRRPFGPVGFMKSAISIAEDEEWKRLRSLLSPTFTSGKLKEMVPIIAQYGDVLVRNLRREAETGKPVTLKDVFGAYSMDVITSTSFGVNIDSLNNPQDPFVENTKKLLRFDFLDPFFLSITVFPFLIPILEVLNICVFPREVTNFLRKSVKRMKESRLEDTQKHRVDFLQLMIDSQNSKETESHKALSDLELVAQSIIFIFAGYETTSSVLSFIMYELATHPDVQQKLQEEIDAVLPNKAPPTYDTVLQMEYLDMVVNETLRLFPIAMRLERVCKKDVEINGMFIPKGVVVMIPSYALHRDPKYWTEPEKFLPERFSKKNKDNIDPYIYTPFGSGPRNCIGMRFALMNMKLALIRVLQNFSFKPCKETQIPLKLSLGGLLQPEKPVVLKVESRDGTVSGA

Cytochrome P450 2C8 = biological target: T2, Cytochrome P450 2C8 (Homo sapiens, UniProt P10632); experiment: Inhibition of CYP2C8 (unknown origin); type: ADME
T2 sequence (P10632 whole entry): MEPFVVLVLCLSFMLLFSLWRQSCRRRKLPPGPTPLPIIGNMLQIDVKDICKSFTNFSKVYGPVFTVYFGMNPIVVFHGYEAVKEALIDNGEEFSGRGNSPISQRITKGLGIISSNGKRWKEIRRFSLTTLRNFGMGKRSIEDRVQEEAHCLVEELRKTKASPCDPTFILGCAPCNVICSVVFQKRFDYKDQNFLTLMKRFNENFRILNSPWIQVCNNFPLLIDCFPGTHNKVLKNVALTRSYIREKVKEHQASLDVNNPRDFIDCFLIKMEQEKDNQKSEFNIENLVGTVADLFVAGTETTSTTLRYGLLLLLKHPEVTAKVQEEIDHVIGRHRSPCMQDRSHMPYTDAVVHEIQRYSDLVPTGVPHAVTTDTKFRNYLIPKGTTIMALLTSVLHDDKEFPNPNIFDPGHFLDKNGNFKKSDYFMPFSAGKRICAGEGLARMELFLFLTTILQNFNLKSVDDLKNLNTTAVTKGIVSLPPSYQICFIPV

Cytochrome P450 2C9 = Cytochrome P450 2C9 (Homo sapiens, UniProt P11712); experiment: Inhibition of CYP2C9 (unknown origin); type: ADME
Cytochrome P450 2C19 = Cytochrome P450 2C19 (Homo sapiens, UniProt P33261); experiment: Inhibition of CYP2C19 (unknown origin); type: ADME
Chain of Cytochrome P450 2C19 (P33261 whole entry): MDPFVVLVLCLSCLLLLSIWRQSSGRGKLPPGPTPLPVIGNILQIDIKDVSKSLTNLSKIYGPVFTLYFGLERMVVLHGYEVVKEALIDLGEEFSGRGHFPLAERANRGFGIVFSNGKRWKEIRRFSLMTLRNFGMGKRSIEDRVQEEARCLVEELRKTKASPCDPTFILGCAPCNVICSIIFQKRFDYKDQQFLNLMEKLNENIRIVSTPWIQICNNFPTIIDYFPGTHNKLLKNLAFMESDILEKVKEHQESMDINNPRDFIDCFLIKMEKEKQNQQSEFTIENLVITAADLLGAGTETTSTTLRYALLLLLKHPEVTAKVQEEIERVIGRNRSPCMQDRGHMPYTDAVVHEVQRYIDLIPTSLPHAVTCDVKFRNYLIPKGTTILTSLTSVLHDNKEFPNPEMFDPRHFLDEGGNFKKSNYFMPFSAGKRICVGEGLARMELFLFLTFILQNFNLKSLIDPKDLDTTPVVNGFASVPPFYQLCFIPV

Cytochrome P450 2D6 = Cytochrome P450 2D6 (Homo sapiens, UniProt P10635); experiment: Inhibition of CYP2D6 (unknown origin); type: ADME
Chain of Cytochrome P450 2D6 (P10635 whole entry): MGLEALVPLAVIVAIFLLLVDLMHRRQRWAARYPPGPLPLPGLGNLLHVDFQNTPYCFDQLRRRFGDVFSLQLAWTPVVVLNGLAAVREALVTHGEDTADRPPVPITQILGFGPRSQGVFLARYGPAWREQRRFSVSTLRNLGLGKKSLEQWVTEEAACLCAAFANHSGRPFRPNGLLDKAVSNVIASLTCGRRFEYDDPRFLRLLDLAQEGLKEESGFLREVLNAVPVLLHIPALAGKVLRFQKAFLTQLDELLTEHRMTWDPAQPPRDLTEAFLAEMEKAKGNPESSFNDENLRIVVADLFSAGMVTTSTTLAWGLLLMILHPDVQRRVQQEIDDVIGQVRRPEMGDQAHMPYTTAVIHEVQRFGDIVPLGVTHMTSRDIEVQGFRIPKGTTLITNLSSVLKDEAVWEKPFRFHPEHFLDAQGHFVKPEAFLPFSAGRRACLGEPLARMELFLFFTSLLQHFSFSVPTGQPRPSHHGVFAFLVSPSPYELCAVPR

CYP3A4 = CYP3A4 (Homo sapiens, UniProt P08684); experiment: Time dependent inhibition of CYP3A4 (unknown origin) at 25 uM after 30 mins; type: ADME
Chain of CYP3A4 (P08684 whole entry): as the sequence (P08684 whole entry) above

[34] = biological target: T3, Nuclear receptor subfamily 1 group I member 2 (Homo sapiens, UniProt O75469); experiment: Activation of PXR (unknown origin) at 10 uM relative to rifampicin; type: ADME
T3 sequence (O75469 whole entry): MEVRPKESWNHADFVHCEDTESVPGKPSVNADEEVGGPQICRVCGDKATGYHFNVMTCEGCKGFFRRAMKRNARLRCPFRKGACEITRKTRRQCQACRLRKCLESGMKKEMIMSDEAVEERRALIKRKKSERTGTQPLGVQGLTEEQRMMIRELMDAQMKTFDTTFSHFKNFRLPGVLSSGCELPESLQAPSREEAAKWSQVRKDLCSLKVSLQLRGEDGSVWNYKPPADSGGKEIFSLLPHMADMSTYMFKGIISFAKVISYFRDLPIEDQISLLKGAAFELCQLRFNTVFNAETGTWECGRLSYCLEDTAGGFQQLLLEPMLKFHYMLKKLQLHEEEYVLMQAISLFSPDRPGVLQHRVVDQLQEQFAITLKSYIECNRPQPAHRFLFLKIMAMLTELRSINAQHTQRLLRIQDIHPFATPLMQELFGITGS

Salmonella typhimurium = experiment: Genotoxicity in Salmonella typhimurium by Ames test; type: toxicity, organism-based; conditions: salmonella enterica subsp. enterica serovar typhimurium
U-937 [35] = experiment: Cytotoxicity against human U937 cells; type: cell-based
U-937 [36] = experiment: Toxicity in human U937 cells assessed as phospholipidosis at 100 uM by nile red uptake assay; type: cell-based; conditions: u-937, 100 µM
[37] = biological target: Voltage-gated inwardly rectifying potassium channel KCNH2 (Homo sapiens, UniProt Q12809); experiment: Inhibition of human ERG by patch clamp assay
Chain of Voltage-gated inwardly rectifying potassium channel KCNH2 (Q12809 whole entry): as the sequence (Q12809 whole entry) above

[38] = Distribution coefficient, log D of the compound; type: physicochemical; conditions: octanol/water
[39] = Dissociation constant, pKa of the compound; type: physicochemical
[40] = Aqueous solubility of the compound at pH 2.2; type: physicochemical
[41] = Aqueous solubility of the compound at pH 4.5; type: physicochemical
[42] = Aqueous solubility of the compound at pH 6.8; type: physicochemical
[43] = Aqueous solubility of the compound at pH 7.4; type: physicochemical
Rattus norvegicus [44] = experiment: Antiobesity activity in diet-induced obese Wistar rat model assessed as reduction of body weight at 3 mg/kg, po bid after 4 weeks; type: functional; design: scale not given: the % may be the effect or the level left
Rattus norvegicus [45] = experiment: Antiobesity activity in diet-induced obese Wistar rat model assessed as reduction of body weight at 6 mg/kg, po bid after 4 weeks; type: functional; design: scale not given: the % may be the effect or the level left
Rattus norvegicus [46] = experiment: Antiobesity activity in diet-induced obese Wistar rat model assessed as reduction of body weight at 10 mg/kg, po bid after 4 weeks; type: functional; design: scale not given: the % may be the effect or the level left
Rattus norvegicus [47] = experiment: Toxicity in diet-induced obese Wistar rat model at 6 to 10 mg/kg, po bid after 4 weeks; type: organism-based; conditions: in vivo, 672 h
Cynomolgus monkey [48] = experiment: Cardiotoxicity in conscious cynomolgus monkey assessed as systolic and diastolic blood pressure at 3 to 30 mg/kg, po; type: toxicity, organism-based, Macaca fascicularis; conditions: in vivo
Cynomolgus monkey [49] = experiment: Cardiotoxicity in conscious cynomolgus monkey assessed as left ventricular pressure at 3 to 30 mg/kg, po; type: toxicity, organism-based, Macaca fascicularis, Heart left ventricle; conditions: in vivo
Cynomolgus monkey [50] = experiment: Cardiotoxicity in conscious cynomolgus monkey assessed as myocardial contraction at 3 to 30 mg/kg, po; type: toxicity, organism-based, Macaca fascicularis, Myocardium; conditions: in vivo
Cynomolgus monkey [51] = experiment: Cardiotoxicity in conscious cynomolgus monkey assessed as decrease in heart rate at 30 mg/kg, po; type: toxicity, organism-based, Macaca fascicularis; conditions: in vivo

In the case of `CC(C)CC(N(C)C)C1(c2ccc(Cl)cc2)CCC1` (stereo not drawn) [SIBUTRAMINE], the Activity (Rattus norvegicus [1]) is reported as 10.9%.

Work on `CN(C)Cc1ccc(CCn2ccc(OCc3ccccc3)cc2=O)cc1` yielded an IC50 [2] of 7 nM, a logP [3] of 3.2 and a half-life [4] of 5 min. For the same compound, the Activity (U-937 [5]) was 100 µM.

Compound `COc1ccc(COc2cnn(CC(=O)c3ccc(CN(C)C)cc3C)c(=O)c2)nc1` has an IC50 [2] of 22 nM, a logP [3] of 2.3 and a half-life [4] greater than 45 min. For the same compound, the hepatocyte CLint [6] was 3.3 µL/min/1e6 cells, the inhibition at 10 µM (hERG (KCNH2)) was 17% and the Activity (U-937 [5]) was 200 µM. It also gave a Ki [7] of 14 nM, an Activity [8] of 78% and an IC50 [9] of 18 nM. It also gave an IC50 [10] of 23 nM, a hepatic extraction ratio [11] of 0.26 and a hepatic extraction ratio [12] of 0.78. The hepatic extraction ratio [13] was 0.43, the fraction unbound [14] was 0.07 and the fraction unbound [15] was 0.1. The fraction unbound [16] was 0.2, the fraction unbound [17] was 0.1 and the Papp A→B at 10 µM [18] was 52 ×10⁻⁶ cm/s. For the same compound, the efflux ratio at 10 µM [19] was 1, the CL (Rattus norvegicus [20]) was 164% and the CL (Canis familiaris) was 229%. The CL (Cynomolgus monkey [21]) was 40%, the Vd [22] was 3.3 L/kg and the Vd [23] was 2.9 L/kg. The Vd [24] was 1.3 L/kg, the MRT [25] was 30 min and the MRT [26] was 42 min. For the same compound, the MRT [27] was 1.2 h, the MRT [28] was 3.4 h and the MRT [29] was 2.9 h. The MRT [30] was 2.2 h, the bioavailability [31] was 53% and the bioavailability [32] was 1.4%. The bioavailability [33] was 44%, the IC50 (Cytochrome P450 3A4) was 18 µM and the IC50 (Cytochrome P450 2C8) was greater than 50 µM. The IC50 (Cytochrome P450 2C9) was greater than 50 µM, the IC50 (Cytochrome P450 2C19) was greater than 50 µM and the IC50 (Cytochrome P450 2D6) was greater than 50 µM. For the same compound, the inhibition at 0.5 h, 25 µM (CYP3A4) was 85%, the Activity [34] was 17% and the Activity (Salmonella typhimurium) was “Non-toxic”. The IC50 (U-937 [35]) was 506 µM, the Activity (U-937 [36]) was “Non-toxic” and the IC50 [37] was 16 µM. It also gave a logD [38] of 1.4, a pKa [39] of 2.8 and a solubility [40] greater than 1000 µg/mL. The solubility [41] was greater than 1000 µg/mL, the solubility [42] was greater than 1000 µg/mL and the solubility [43] was greater than 1000 µg/mL. It also gave an Activity (Rattus norvegicus [44]) of 7.7%, an Activity (Rattus norvegicus [45]) of 10.1% and an Activity (Rattus norvegicus [46]) of 10.2%. The Activity (Rattus norvegicus [47]) was “Non-toxic”, the Activity (Cynomolgus monkey [48]) was “Non-toxic” and the Activity (Cynomolgus monkey [49]) was “Non-toxic”. For the same compound, the Activity (Cynomolgus monkey [50]) was “Non-toxic” and the Activity (Cynomolgus monkey [51]) was “Non-toxic”.

Compound `CN(C)Cc1ccc(C(=O)Cn2ccc(OCc3ccc(Br)cn3)cc2=O)cc1` has an IC50 [2] of 28 nM, a logP [3] of 2.5 and a half-life [4] of 32 min. It also gave a hepatocyte CLint [6] of 66 µL/min/1e6 cells.
